In ChEMBL document CHEMBL1128993, “Optimization of retro-thiorphan for inhibition of endothelin converting enzyme” (Bioorg Med Chem Lett, 1996):

These molecules were tested on Endothelin-converting enzyme 1 (Sus scrofa) (assay: Inhibition of endothelin-converting enzyme 1 partially purified from porcine primary aortic endothelial cells at 20 uM). Conditions: Endothelial cell.

SMILES	inhibition
O=C(Cc1cccnc1)N[C@@H](CS)Cc1ccccc1	58%
O=C(Cc1ccc(OCc2ccccc2)cc1)N[C@@H](CS)Cc1ccc(-c2cccc3ccccc23)cc1	0%
O=C(N[C@@H](CS)Cc1ccccc1)c1cccs1	67%
O=C(CCc1ccccc1O)N[C@@H](CS)Cc1ccccc1	58%
Cn1cc(C[C@H](CS)NC(=O)Cc2ccc(-c3ccccc3)cc2)c2ccccc21	68%
O=C(Cc1ccccc1)N[C@@H](CS)Cc1ccccc1	58%
O=C(Cc1ccc(OCc2ccccc2)cc1)N[C@H](Cc1c[nH]c2ccccc12)C(=O)N1CCC[C@@H]1CS	> 20%
O=C(Cc1ccc(-c2ccccc2)cc1)N[C@@H](CS)Cc1cccnc1	91%
O=C(N[C@@H](CS)Cc1ccc(-c2ccccc2)cc1)c1cccnc1	39%
O=C(Cc1ccc(OCc2ccccc2)cc1)N[C@@H](CCS)Cc1c[nH]c2ccccc12	> 20%
O=C(Cc1ccc(OCc2ccccc2)cc1)N[C@@H](CS)Cc1cccc2ccccc12	51%
O=C(Cc1ccccc1)N[C@@H](CS)Cc1ccc(O)cc1	56%
O=C(N[C@@H](CS)Cc1ccccc1)c1ccncc1	48%
O=C(Cc1ccc(-c2ccccc2)cc1)N[C@@H](CS)CCc1ccccc1	16%
O=C(CCc1ccccc1Cl)N[C@@H](CS)Cc1ccccc1	57%
O=C(N[C@@H](CS)Cc1ccccc1)c1cc2ccccc2cn1	76%
O=C(Cc1ccc(OCc2ccccc2)cc1)N[C@@H](CS)Cc1ccc2ccccc2c1	10%
CN(C(=O)Cc1ccccc1)[C@@H](CS)Cc1ccccc1	24%
O=C(N[C@@H](CS)Cc1ccccc1)c1nccc2ccccc12	36%
O=C(N[C@@H](CS)Cc1ccccc1)c1ccco1	54%
CC(C)C[C@H](CS)NC(=O)c1cccnc1	21%

Continued, values first:

inhibition	SMILES
33%	O=C(N[C@@H](CS)Cc1ccccc1)C1Cc2ccccc2CN1 (some centres undefined)
49%	O=C(CCc1ccccc1)N[C@@H](CS)Cc1ccccc1
52%	O=C(N[C@@H](CS)Cc1ccccc1)c1ccccn1
> 20%	O=C(N[C@H](Cc1c[nH]c2ccccc12)C(=O)NCCS)c1cccnc1
15%	O=C(Cc1ccccc1)N[C@@H](CS)Cc1ccc(OCc2ccccc2)cc1
74%	O=C(Cc1ccc(-c2ccccc2)cc1)N[C@@H](CS)Cc1ccccc1
67%	O=C(N[C@@H](CS)Cc1ccccc1)c1c[nH]c2ccccc12
30%	CC(C)[C@H](CS)NC(=O)c1cccnc1
23%	O=C(N[C@@H](CS)Cc1ccccc1)/C(=C/c1ccccc1)c1ccccc1
48%	O=C(CCC(C(=O)O)c1ccccc1)N[C@@H](CS)Cc1ccccc1 (some centres undefined)
0%	O=C(N[C@@H](CS)Cc1ccccc1)[C@@H]1CCCN1
66%	O=C(CCc1cccnc1)N[C@@H](CS)Cc1ccccc1

These molecules were tested on Endothelin-converting enzyme 1 (Sus scrofa) (assay: Compound was evaluated for inhibition of Endothelin converting enzyme-1 partially purified from porcine primary aortic endothelial cells at 20 uM). Conditions: Endothelial cell.

inhibition	SMILES
63%	O=C(Cc1ccccc1OCc1ccccc1)N[C@@H](CS)Cc1ccccc1
